Assay results taken from ChEMBL document CHEMBL1140537, “DNA cleavage by photolysis of aryl sulfoxides” (Bioorg Med Chem Lett, 2007).
Activity calls are given as the source filed them. The rule behind the calls is not given here.

Assays:
Homo sapiens [1] = species: Homo sapiens; assay: Cleavage of DNA at 180 uM
Homo sapiens [2] = species: Homo sapiens; assay: Cleavage of DNA at 180 uM in presence of cysteine
Homo sapiens [3] = species: Homo sapiens; assay: Cleavage of DNA at 180 uM in anaerobic condition
Homo sapiens [4] = species: Homo sapiens; assay: Cleavage of DNA at 360 uM

Row | Compound | Activity (Homo sapiens [1]) | Activity (Homo sapiens [2]) | Activity (Homo sapiens [3]) | Activity (Homo sapiens [4])
1 | [O-][S+](c1ccccc1)c1ccccc1 | Active | inactive | inactive | 
2 | C[S+]([O-])c1ccccc1 (centres undefined) |  |  |  | Active
